Legend:
AMPA receptor [1] = settings: cited from earlier work
[2] = rat, in vivo, ip
Source text: To test the ability of invention compounds to pass the blood-brain barrier, Invention Compound II was labelled with carbon-11.
Radiolabelled Invention Compound II (see the table above) is synthesized by the following scheme (wherein the numbers in parenthesis refer to the quantity of reagent used, in millimoles): [drawing 31]
wherein Ar is aryl (such as methylenedioxybenzene), Im is imidazole (thus, ImHCl is imidazole hydrochloride), and R is an alkyl or alkylene radical (so that R2NH is, for example, piperidine). ^11C-labelled CO2 is produced by cyclotron irradiation and subsequently used in the above-described synthetic scheme. The time to complete the synthesis is about […] (2 times the half-life of carbon-11). After purification of [^11C]II on C18 Sep Pak, 260 μCi was diluted with 20 mg of nonradioactive II as carrier in a 1-ml solution of 23% propylene glycol and 10% ethanol in physiologically-buffered saline in order to simulate the dosage of 100 mg/Kg that was used in behavioral studies. The final 1 ml of solution was administered to a 200 g rat under halothane anesthesia (1.4-1.7% in oxygen) by intraperitoneal (i.p.) injection.
Biodistribution of the radiotracer in the body of the rat was monitored by a positron camera (Scanditronix PC2048-15B) and the time-activity curves were constructed using a Vax 3500 (Digital Equipment Corporation) and shown in FIG. 5.

AMPA receptors [3] = target: T1, AMPA receptors; assay: field EPSPs in field CA1 of in vitro slices of rat hippocampus; assay type: cell-based; settings: for EC50: estimated from log dose/response curves, maximal response of 85% increase assumed where limited solubility prevented a maximum, read-out: EC50 (percent increase in field EPSP amplitude)
T1 construct: EC50 (percent increase in field EPSP amplitude); other: estimated from log dose/response curves; maximal response of 85; effect on field EPSP amplitude and duration; other: 1.5 mM, 15 minute infusion; enhancement of the area of the field EPSP; other: 100 μM; mean and S.D. of 4
Protocol: The physiological effects of invention compounds can be tested in vitro with slices of rat hippocampus as follows. Excitatory responses (field EPSPs) are measured in hippocampal slices which are maintained in a recording chamber continuously perfused with artificial cerebrospinal fluid (ACSF).
To conduct these tests, the hippocampus was removed from anesthetized, 2 month old Sprague-Dawley rats and in vitro slices (400 micrometers thick) were prepared and maintained in an interface chamber at 35° C. using conventional techniques [see, for example, Dunwiddie and Lynch, J. Physiol. Vol. 276: 353-367 (1978)]. The chamber was constantly perfused at 0.5 ml/min with ACSF containing (in mM): NaCl 124, KCl 3, KH2PO4 1.25, MgSO4 2.5, CaCl2 3.4, NaHCO3 26, glucose 10 and L-ascorbate 2. A bipolar nichrome stimulating electrode was positioned in the dendritic layer (stratum radiatum) of the hippocampal subfield CA1 close to the border of subfield CA3.
Current pulses (0.1 msec) through the stimulating electrode activate a population of the Schaffer-commissural (SC) fibers which arise from neurons in the subdivision CA3 and terminate in synapses on the dendrites of CA1 neurons. Activation of these synapses causes them to release the transmitter glutamate. Glutamate binds to the post-synaptic AMPA receptors which then transiently open an associated ion channel and permit a sodium current to enter the postsynaptic cell. This current results in a voltage in the extracellular space (the field excitatory post-synaptic potential or field “EPSP”) which is recorded by a high impedance recording electrode positioned in the middle of the stratum radiatum of CA1.
For the experiments summarized in FIG. 1, the intensity of the stimulation current was adjusted to produce half-maximal EPSPs (typically about 1.5-2.0 mV). Paired stimulation pulses were given every 40 sec with an interpulse interval of 200 msec (see below). The field EPSPs of the second response were digitized and analyzed to determine amplitude, half-width, and response area. If the responses were stable for 15-30 minutes (baseline), test compounds were added to the perfusion lines for a period of about 15 minutes. The perfusion was then changed back to regular ACSF.
Paired-pulse stimulation was used since stimulation of the SC fibers, in part, activates interneurons which generate an inhibitory postsynaptic potential (IPSP) in the pyramidal cells of CA1. This feed forward IPSP typically sets in after the EPSP reaches its peak. It accelerates the repolarization and shortens the decay phase of the EPSP, and thus could partially mask the effects of the test compounds. One of the relevant features of the feed-forward IPSP is that it can not be reactivated for several hundred milliseconds following a stimulation pulse. This phenomenon can be employed to advantage to eliminate IPSP by delivering paired pulses separated by 200 milliseconds and using the second (“primed”) response for data analysis.
The variables set forth in the table refer to the following generic structure: […]

AMPA receptor [4] = assay type: in vivo, rat; settings: 120-180 mg/kg i.p.
Protocol: Stimulating and recording electrodes were placed in the hippocampus of anesthetized rats so as to activate and monitor the same synaptic responses as in the slice studies described in Example XV. […] The time constant for the decay of the EPSP is a measure for the duration of the response.
In these experiments, male Sprague-Dawley rats were anesthetized with urethane (1.7 g/kg) and body temperature was maintained at 37° C. with the use of a heat lamp. A stimulation electrode (two twisted stainless steel wires, 150 μm diameter, insulated with teflon) was placed stereotaxically in the trajectory of the Schaffer collateral (SC) pathway from CA3 to CA1 of the hippocampus (coordinates relative to Bregma: 3.5 mm P., 3.5 mm L., and 3.0-3.7 mm V). […]
Negative field potentials reflecting dendritic EPSPs evoked by SC stimulation (0.1 ms pulses, 10-100 μA) with paired pulses (inter-pulse interval of 200 msec; see methodology described in Example XV) were amplified 500 times and digitized by computer at 20 sec intervals throughout each experiment. […] Decay time constants were determined by single exponential fits to the decay phase of the synaptic response and expressed as a percent of the value obtained during the pre-injection control period.

AMPA receptors [5] = assay: long-term potentiation (theta burst stimulation) in CA1 field of hippocampal slices; assay type: cell-based, rat; settings: 1.5 mM infused 15 minutes prior to theta burst stimulation; five experiments; p<0.02
Protocol: Long-term potentiation (LTP; a stable increase in the EPSP size of single responses after brief periods of high frequency stimulation) was elicited in the CA1 field of hippocampal slices in the absence (see FIG. 3, stippled bars, N=6) and in the presence of 1.5 mM of Invention Compound I (see FIG. 3, striped bars, N=5). In the latter case, the amount of potentiation was determined after washing out the test compound and comparing the response size with that before test compound infusion. Data presented in FIG. 3 show the percent increase in the EPSP amplitude (mean and S.D.) at 40, 60, and 90 minutes after LTP induction.
For these studies, field EPSPs in slices of hippocampus were elicited by single stimulation pulses and recorded by extracellular electrodes as described in Example II. After collecting responses every 40 seconds for 20-30 minutes to establish a baseline, LTP was induced with ten short bursts of pulses delivered to the CA3 axons; each burst consisted of four pulses separated by 10 milliseconds; the interval between the bursts was 200 milliseconds. This pattern of axon stimulation mimics a discharge rhythm observed in the hippocampus of animals engaged in learning and is referred to as the “theta burst stimulation paradigm” [see, for example, Larson and Lynch in Science Vol. 232: 985-988 (1986)]. […]

COc1ccc(C(=O)N2CC[C@@H](O)C2=O)cc1 [AHP, (R)-1-p-anisoyl-3-hydroxy-2-pyrrolidinone]
facilitation of AMPA receptor mediated responses in slices (AMPA receptor [1]; nootropics tested in slices): facilitate AMPA receptor mediated responses

O=C(c1ccc2c(c1)OCO2)N1CCCCC1 [Compound II, 1-(1,3-benzodioxol-5-ylcarbonyl)-piperidine]
brain distribution relative to head excluding the cranial cavity [2]: approximately equal | brain distribution relative to heart [2]: two-thirds | brain distribution relative to liver [2]: approximately one-quarter | passage of the blood-brain barrier [2]: passes freely through the blood-brain barrier | time to plateau of brain uptake [2]: 5 to 10 min

O=C(c1ccc2ncoc2c1)N1CC=CCC1 [Compound IX, 1-(1,3-benzoxazol-6-ylcarbonyl)-1,2,3,6-tetrahydodyridine]
EC50 (AMPA receptors [3]): 4000 µM

O=C(c1ccc2c(c1)OCCO2)N1CC=CCC1 [Compound I]
fold greater increase in the response area than aniracetam (AMPA receptors [3]; 750 μM): nine-fold | effect on synaptic response compared with aniracetam (AMPA receptors [3]; 750 μM versus aniracetam 1500 μM, 15 minute infusion): much larger effect | reversibility of effect upon washout (AMPA receptors [3]; after 15 minute infusion): fully reversible upon washout | times greater effect on response area than aniracetam at the same concentrations (AMPA receptors [3]; dosages in the range of 750 μM to 1.5 μM): 6-9 times | time within which the effect reversed after injection (AMPA receptor [4]): 60 to 120 min | effect on duration (decay time constant) of synaptic response (AMPA receptor [4]; anesthetized rats, n=8): rapid increase in the duration of the synaptic response | degree of stable long-term potentiation versus stimulation in absence of drug (AMPA receptors [5]): nearly twice as large

O=C(c1cccc2c1OCCO2)N1CC=CC1 [Compound VIII, 1-(1,4-benzodioxan-5-ylcarbonyl)-3-pyrroline]
EC50 (AMPA receptors [3]): 3000 µM

O=C(c1ccc2ncoc2c1)N1CCCCC1 [Compound X, 1-(1,3-benzoxazol-6-ylcarbonyl)-piperidine]
EC50 (AMPA receptors [3]): 1300 µM

O=C(c1ccc2ocnc2c1)N1CC=CCC1 [Compound XI, 1-(1,3-benzoxazol-5-ylcarbonyl)-1,2,3,6-tetrahydropyridine]
EC50 (AMPA receptors [3]): 3000 µM

O=C(c1ccc2nc[nH]c2c1)N1CCCCC1 [Compound XII, 1-(1,3-benzimidazol-5-ylcarbonyl)-piperidine]
EC50 (AMPA receptors [3]): 5000 µM

COc1ccc(C(=O)NCCCC(=O)O)cc1 [anisoyl-GABA]
aniracetam-like effects (AMPA receptor [1]): no aniracetam-like effects

Reference: patent US20020099050A1, “Drugs that enhance synaptic responses mediated by AMPA receptors” (priority 1993, published 2002)
